Results published in the supplement of paper PMC10307832.

Columns and labels:
Assay in all cases: relative viability (nuclei count vs DMSO), 5 days (fraction); higher = more cells survive
[1] = compound: Cn1c(=O)n(-c2ccc(C(C)(C)C#N)cc2)c2c3cc(-c4cnc5ccccc5c4)ccc3ncc21 [Dactolisib] + COc1cc2c(Oc3ccc(NC(=O)C4(C(=O)Nc5ccc(F)cc5)CC4)cc3F)ccnc2cc1OCCCN1CCOCC1 [Foretinib] (partner 0.25 µM)
In short: (§1)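 Relative viability is defined as nuclei in treated wells over nuclei in vehicle wells. Duplicate plates were run and medians reported. Lung cancer cell lines in 1536-well plates were dosed by pin tool one day after seeding, with one drug or with a fixed anchor-drug dose plus five library-drug doses (not always all listed) in √10 steps, and nuclei were counted after 5 days.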

[2] = compound: C1CCC(CC1)N(CCNCCC2=C3C(=C(C=C2)O)NC(=O)CO3)C(=O)CCNCCC4=CC(=C(C=C4)Cl)Cl [AZ505] + Cc1nc(Nc2ncc(C(=O)Nc3c(C)cccc3Cl)s2)cc(N2CCN(CCO)CC2)n1 [Dasatinib] (partner 0.075 µM)
In short: as §1

[3] = compound: C1CCC(CC1)N(CCNCCC2=C3C(=C(C=C2)O)NC(=O)CO3)C(=O)CCNCCC4=CC(=C(C=C4)Cl)Cl [AZ505] + Cc1nc(NC(=O)N2CCC[C@H]2C(N)=O)sc1-c1ccnc(C(C)(C)C(F)(F)F)c1 [Alpelisib] (partner 2 µM)
In short: as §1

[4] = compound: Cn1c(=O)n(-c2ccc(C(C)(C)C#N)cc2)c2c3cc(-c4cnc5ccccc5c4)ccc3ncc21 [Dactolisib] + C[C@@H](Oc1cc(-c2cnn(C3CCNCC3)c2)cnc1N)c1c(Cl)ccc(F)c1Cl [Crizotinib] (partner 1 µM)
In short: as §1

Cell Line | relative viability ([1]; first compound 0.002 µM) | relative viability ([1]; first compound 0.006325 µM) | relative viability ([1]; first compound 0.02 µM) | relative viability ([1]; first compound 0.06325 µM) | relative viability ([1]; first compound 0.2 µM) | relative viability ([2]; first compound 0.08 µM) | relative viability ([2]; first compound 0.253 µM) | relative viability ([2]; first compound 0.8 µM) | relative viability ([2]; first compound 2.53 µM) | relative viability ([2]; first compound 8 µM) | relative viability ([3]; first compound 0.08 µM) | relative viability ([3]; first compound 0.253 µM) | relative viability ([3]; first compound 0.8 µM) | relative viability ([3]; first compound 2.53 µM) | relative viability ([3]; first compound 8 µM) | relative viability ([4]; first compound 0.002 µM) | relative viability ([4]; first compound 0.006325 µM) | relative viability ([4]; first compound 0.02 µM) | relative viability ([4]; first compound 0.06325 µM) | relative viability ([4]; first compound 0.2 µM)
LOU-NH91 | 0.897 | 0.921 | 0.9 | 0.658 | 0.548 | 0.536 | 0.537 | 0.452 | 0.53 | 0.601 | 0.622 | 0.636 | 0.611 | 0.631 | 0.742 | 0.718 | 0.715 | 0.698 | 0.593 | 0.515
LU99A | 0.742 | 0.75 | 0.582 | 0.386 | 0.312 |  | 0.475 | 0.618 | 0.48 | 0.536 | 0.55 | 0.519 | 0.618 | 0.478 | 0.493 | 0.548 | 0.446 | 0.335 | 0.272 | 0.231
LXF-289 | 1.02 | 0.952 | 0.99 | 0.987 | 0.827 | 0.231 | 0.189 | 0.169 | 0.249 | 0.181 | 0.983 |  | 1.02 | 1.06 | 1.01 | 0.822 | 0.779 | 0.896 | 0.942 | 0.708
NCI-H23 | 1.17 | 0.997 | 0.69 | 0.456 | 0.413 | 0.721 |  | 0.722 | 0.797 | 0.877 | 0.617 |  | 0.653 | 0.644 | 0.845 | 0.455 | 0.408 | 0.614 | 0.357 | 0.257
NCI-H322M | 1.08 | 0.89 | 0.73 | 0.629 | 0.578 | 0.24 | 0.233 | 0.239 | 0.261 | 0.273 | 0.757 | 0.774 | 0.688 | 0.844 | 0.79 | 0.827 | 1.02 | 0.863 | 0.684 | 0.641
NCI-H358 | 0.738 | 0.769 | 0.623 | 0.312 | 0.165 | 0.226 | 0.145 | 0.192 | 0.115 | 0.167 | 0.699 | 0.741 | 0.859 | 0.729 | 0.795 | 0.702 | 0.705 | 0.738 | 0.391 | 0.189
NCI-H441 | 1.14 | 1.04 | 0.961 | 0.432 | 0.382 | 0.35 | 0.619 | 0.659 | 0.549 | 0.694 | 0.721 | 0.698 | 0.599 | 0.671 | 0.761 | 0.923 | 0.64 | 0.554 | 0.496 | 0.271
NCI-H460 | 1.03 | 1 | 1.03 | 0.493 | 0.407 | 0.529 | 0.416 | 0.557 | 0.314 | 0.59 | 0.458 | 0.559 | 0.485 | 0.507 | 0.469 | 1.09 | 0.835 | 0.513 | 0.136 | 0.0929
